Columns and labels:
[1] = population PK model estimate, mice
[2] = In vivo pharmacokinetic study in mice, oral ibrutinib (plasma, LC-MS/MS); conditions: for AUC(0-t) / Cmax / bioavailability: plasma, po; for AUC(0-t): Ibrutinib AUC(0-last); for Cmax: Ibrutinib Cmax; for increase in ibrutinib AUC: male FVB wild-type mice; for systemic levels of ibrutinib: ibrutinib 10 mg/kg orally
Experimental: (§1) Experiments were performed with male and female mice from inbred wild-type strains (FVB, C57BL/6, DBA) or with age- and sex-matched genetically engineered mice with a deficiency of the Cyp3a locus [(8 genes; FVB.129P2-Cyp3a13^tm1Ahs Del (5Cyp3a57-Cyp3a59)1Ahs); ref. [16]; CYP3A^−/−], a deficiency of the intestinal transporter OATP2B1 (ref. [17]; OATP2B1 ^−/−), or the hepatic transporter OATP1B2 (ref. [18]; OATP1B2 ^−/−). […] The studies were approved by the University Laboratory Animal Resources Animal Care and Use Committee at The Ohio State University (Columbus, OH). […] For in vivo studies, drugs were prepared in standard vehicles ([19, 20]). Details regarding the preparation of drugs are provided in the Supplementary Methods.
(§2) Pharmacokinetic studies were performed as described previously ([21]). Further details are provided in the Supplementary Methods.
(§3) The lower limit of quantification was 5 ng/mL, using 5-μL sample volumes. Details regarding the analytic method are provided in the Supplementary Methods.
(§4) Ketoconazole was prepared for oral administration as a 10-mg/mL suspension in PEG400, and cobicistat as a 6-mg/mL suspension in corn oil.
(§5) Pharmacokinetic studies were performed as previously described.
The analytical equipment consisted of a Vanquish UHPLC system, a TSQ Quantum Ultra triple quadrupole mass spectrometer from Thermo Fisher Scientific, and Thermo Trace Finder General Quan system software (version 3.3). An Accucore Vanquish C18 column (100 × 2.1 mm, dp = 1.5 μm; Thermo Fisher Scientific) was protected by a corresponding XBridgeBEH C18, 5-μm guard column. The injection volume of sample was 5.0 μL. The temperature of the autosampler rack was 4 °C, and the temperature of the column was 40 °C. Mobile phase A consisted of water with 0.1% (v/v) formic acid and mobile phase B consisted of acetonitrile: methanol (1:3) with 0.1% (v/v) formic acid. The total run time was 5 min. The mobile phase was delivered at a flow rate of 0.4 mL/min, and the optimized gradient contained time-varying amounts of mobile phase B, as follows: 0-0.5 min, 10% B; 0.5-1.5 min, 95% B; 1.5-2.9 min, 95% B; 2.9-3.0 min, 10% B; and 3.0-5.0 min, 10% B. The mass spectrometric assay settings included a positive voltage applied to the ESI capillary of 3500 V, a capillary temperature of 342 °C, and a vaporizer temperature of 358 °C. Argon was used a collision gas at a pressure of 1.5 mTorr. […] For sample extraction by protein precipitation, 5 µL of plasma, 5 µL of microsomal suspension, or 10 µL of homogenized tissue were added to a tube containing 60 µL of internal standard solution and 20 µL of methanol. Samples were then vortex-mixed, centrifuged at 13,000 rpm for 9.5 min, and supernatants collected and stored frozen until analysis. […] The lower limit of quantification was 5 ng/mL, using 5-µL sample volumes.

[3] = design: method as in earlier work; conditions: unbound drug in the plasma; PBPK model parameter; ref [17, 18] and Drugbank; cited from earlier work
[4] = design: method as in earlier work; conditions: acid dissociation constant; PBPK model parameter; ref [17, 18] and Drugbank; cited from earlier work
[5] = In vivo pharmacokinetic study in mice, intravenous ibrutinib (plasma); conditions: for AUC(0-t) / Cmax: female, FVB, mouse, plasma, iv, 1 mg/kg, ibrutinib 1 mg/kg IV, mean (SD); for AUC(0-t): Ibrutinib AUC(0-last); for Cmax: Ibrutinib Cmax
Experimental: as §1, §2, §3, §4, §5

[6] = female, C57BL/6, mouse, 10 mg/kg, female OATP2B1(-/-) mice, ibrutinib 10 mg/kg PO, no co-treatment, mean (SD)
[7] = female, C57BL/6, mouse, 10 mg/kg, female wild-type C57BL/6 mice, ibrutinib 10 mg/kg PO, no co-treatment, mean (SD)
[8] = female, DBA, mouse, 10 mg/kg, female OATP1B2(-/-) mice, ibrutinib 10 mg/kg PO, no co-treatment, mean (SD)
[9] = female, DBA, mouse, 10 mg/kg, female wild-type DBA mice, ibrutinib 10 mg/kg PO, no co-treatment, mean (SD)
[10] = female, FVB, mouse, 4 mg/kg, female wild-type FVB mice, ibrutinib 4 mg/kg oral, cotreatment cobicistat 30 mg/kg, mean (SE)
[11] = female, FVB, mouse, 10 mg/kg, female CYP3A-/- mice, ibrutinib 10 mg/kg oral, cotreatment cobicistat 30 mg/kg, mean (SE)
[12] = female, FVB, mouse, 10 mg/kg, female CYP3A-/- mice, ibrutinib 10 mg/kg oral, cotreatment corn oil, mean (SE)
[13] = female, FVB, mouse, 10 mg/kg, female CYP3A-/- mice, ibrutinib 10 mg/kg oral, no cotreatment, mean (SE)
[14] = female, FVB, mouse, 10 mg/kg, female wild-type FVB mice, ibrutinib 10 mg/kg oral single dose, cotreatment cobicistat 30 mg/kg, mean (SE)
[15] = female, FVB, mouse, 10 mg/kg, female wild-type FVB mice, ibrutinib 10 mg/kg oral single dose, cotreatment corn oil, mean (SE)
[16] = female, FVB, mouse, 10 mg/kg, female wild-type FVB mice, ibrutinib 10 mg/kg oral, cotreatment PEG400, mean (SE)
[17] = female, FVB, mouse, 10 mg/kg, female wild-type FVB mice, ibrutinib 10 mg/kg oral, cotreatment cobicistat 30 mg/kg, steady-state, mean (SE)
[18] = female, FVB, mouse, 10 mg/kg, female wild-type FVB mice, ibrutinib 10 mg/kg oral, cotreatment corn oil, steady-state, mean (SE)
[19] = female, FVB, mouse, 10 mg/kg, female wild-type FVB mice, ibrutinib 10 mg/kg oral, cotreatment ketoconazole 50 mg/kg, mean (SE)
[20] = female, FVB, mouse, 10 mg/kg, female wild-type FVB mice, ibrutinib 10 mg/kg oral, no cotreatment, mean (SE)
[21] = female, FVB, mouse, 30 mg/kg, female wild-type FVB mice, ibrutinib 30 mg/kg oral, no cotreatment, mean (SE)
[22] = male, C57BL/6, mouse, 10 mg/kg, male OATP2B1(-/-) mice, ibrutinib 10 mg/kg PO, no co-treatment, mean (SD)
[23] = male, C57BL/6, mouse, 10 mg/kg, male wild-type C57BL/6 mice, ibrutinib 10 mg/kg PO, no co-treatment, mean (SD)
[24] = male, FVB, mouse, 10 mg/kg, male wild-type FVB mice, ibrutinib 10 mg/kg PO, co-treatment No Vehicle (cobicistat experiment), mean (SD)
[25] = male, FVB, mouse, 10 mg/kg, male wild-type FVB mice, ibrutinib 10 mg/kg PO, co-treatment None (ketoconazole experiment), mean (SD)
[26] = male, FVB, mouse, 10 mg/kg, male wild-type FVB mice, ibrutinib 10 mg/kg PO, co-treatment PEG400, mean (SD)
[27] = male, FVB, mouse, 10 mg/kg, male wild-type FVB mice, ibrutinib 10 mg/kg PO, co-treatment cobicistat, mean (SD)
[28] = male, FVB, mouse, 10 mg/kg, male wild-type FVB mice, ibrutinib 10 mg/kg PO, co-treatment corn oil, mean (SD)
[29] = male, FVB, mouse, 10 mg/kg, male wild-type FVB mice, ibrutinib 10 mg/kg PO, co-treatment ketoconazole, mean (SD)
[30] = female CYP3A(-/-) mice, co-treatment cobicistat
[31] = female CYP3A(-/-) mice, co-treatment corn oil
[32] = female wild-type FVB mice, co-treatment cobicistat
[33] = female wild-type FVB mice, co-treatment corn oil

IIV Ka ([1]; inter-individual variability): 0.209
IIV Lag ([1]; inter-individual variability): 0.0264
IIV Vc ([1]; inter-individual variability): 0.167
IIV Vp ([1]; inter-individual variability): 0.295
Ka (absorption rate constant) [1]: 0.340 h⁻¹
Lag (lag time) [1]: 0.0324 h
RV IBU ([1]; residual variability): 0.425
ibrutinib AUC increase ([2]; CYP3A-/- mice compared with wild-type mice, oral ibrutinib): about 8 fold
pharmacokinetic profile of ibrutinib with vs without cobicistat ([2]; CYP3A-/- mice, oral ibrutinib, P > 0.05): similar
increase in exposure to ibrutinib ([2]; female wild-type mice, oral ibrutinib 10 mg/kg 30 minutes after oral ketoconazole 50 mg/kg vs vehicle): about 11 fold
AUC(0-t) [2, 6]: 1750 ng·h/mL
AUC(0-t) [2, 7]: 1450 ng·h/mL
Cmax [2, 6]: 1250 ng/mL
Cmax [2, 7]: 1420 ng/mL
AUC(0-t) [2, 8]: 2100 ng·h/mL
AUC(0-t) [2, 9]: 2720 ng·h/mL
Cmax [2, 8]: 2170 ng/mL
Cmax [2, 9]: 1960 ng/mL
AUC(0-t) [2, 10]: 1200 ng·h/mL
Cmax [2, 10]: 589 ng/mL
bioavailability ([2]; female, FVB, mouse, 4 mg/kg, female wild-type FVB mice, ibrutinib 4 mg/kg oral, cotreatment cobicistat 30 mg/kg): 58%
AUC(0-t) [2, 11]: 1660 ng·h/mL
AUC(0-t) [2, 12]: 1410 ng·h/mL
AUC(0-t) [2, 13]: 2350 ng·h/mL
AUC(0-t) [2, 14]: 2600 ng·h/mL
AUC(0-t) [2, 15]: 284 ng·h/mL
AUC(0-t) [2, 16]: 768 ng·h/mL
AUC(0-t) [2, 17]: 2250 ng·h/mL
AUC(0-t) [2, 18]: 459 ng·h/mL
AUC(0-t) [2, 19]: 8320 ng·h/mL
AUC(0-t) [2, 20]: 301 ng·h/mL
Cmax [2, 11]: 845 ng/mL
Cmax [2, 12]: 1390 ng/mL
Cmax [2, 13]: 1760 ng/mL
Cmax [2, 14]: 1440 ng/mL
Cmax [2, 15]: 292 ng/mL
Cmax [2, 16]: 663 ng/mL
Cmax [2, 17]: 925 ng/mL
Cmax [2, 18]: 394 ng/mL
Cmax [2, 19]: 3100 ng/mL
Cmax [2, 20]: 430 ng/mL
bioavailability ([2]; female, FVB, mouse, 10 mg/kg, female CYP3A-/- mice, ibrutinib 10 mg/kg oral, cotreatment cobicistat 30 mg/kg): 32%
bioavailability ([2]; female, FVB, mouse, 10 mg/kg, female CYP3A-/- mice, ibrutinib 10 mg/kg oral, cotreatment corn oil): 27%
bioavailability ([2]; female, FVB, mouse, 10 mg/kg, female CYP3A-/- mice, ibrutinib 10 mg/kg oral, no cotreatment): 45%
bioavailability ([2]; female, FVB, mouse, 10 mg/kg, female wild-type FVB mice, ibrutinib 10 mg/kg oral single dose, cotreatment cobicistat 30 mg/kg): 50%
bioavailability ([2]; female, FVB, mouse, 10 mg/kg, female wild-type FVB mice, ibrutinib 10 mg/kg oral single dose, cotreatment corn oil): 5.5%
bioavailability ([2]; female, FVB, mouse, 10 mg/kg, female wild-type FVB mice, ibrutinib 10 mg/kg oral, cotreatment cobicistat 30 mg/kg, steady-state): 43%
bioavailability ([2]; female, FVB, mouse, 10 mg/kg, female wild-type FVB mice, ibrutinib 10 mg/kg oral, cotreatment corn oil, steady-state): 8.8%
bioavailability ([2]; female, FVB, mouse, 10 mg/kg, female wild-type FVB mice, ibrutinib 10 mg/kg oral, no cotreatment): 5.8%
AUC(0-t) [2, 21]: 1710 ng·h/mL
Cmax [2, 21]: 554 ng/mL
bioavailability ([2]; female, FVB, mouse, 30 mg/kg, female wild-type FVB mice, ibrutinib 30 mg/kg oral, no cotreatment): 11%
increase in ibrutinib AUC ([2]; cobicistat): 7 fold
increase in ibrutinib AUC ([2]; ketoconazole): 10 fold
AUC(0-t) [2, 22]: 1770 ng·h/mL
AUC(0-t) [2, 23]: 1390 ng·h/mL
Cmax [2, 22]: 1630 ng/mL
Cmax [2, 23]: 1380 ng/mL
AUC(0-t) [2, 24]: 520 ng·h/mL
AUC(0-t) [2, 25]: 429 ng·h/mL
AUC(0-t) [2, 26]: 636 ng·h/mL
AUC(0-t) [2, 27]: 4340 ng·h/mL
AUC(0-t) [2, 28]: 663 ng·h/mL
AUC(0-t) [2, 29]: 6640 ng·h/mL
Cmax [2, 24]: 360 ng/mL
Cmax [2, 25]: 404 ng/mL
Cmax [2, 26]: 348 ng/mL
Cmax [2, 27]: 1360 ng/mL
Cmax [2, 28]: 243 ng/mL
Cmax [2, 29]: 1260 ng/mL
systemic levels of ibrutinib ([2]; mice lacking OATP1B2 vs wild-type): not altered
systemic levels of ibrutinib ([2]; mice lacking OATP2B1 vs wild-type): not altered
increase in exposure to ibrutinib ([2]; wild-type mice, oral ibrutinib 10 mg/kg after cobicistat 30 mg/kg, single dose or steady-state (day 5)): about 9 fold
AUC(0-t) [5, 30]: 895 ng·h/mL
AUC(0-t) [5, 31]: 1170 ng·h/mL
AUC(0-t) [5, 32]: 1010 ng·h/mL
AUC(0-t) [5, 33]: 521 ng·h/mL
Cmax [5, 30]: 1440 ng/mL
Cmax [5, 31]: 1860 ng/mL
Cmax [5, 32]: 1540 ng/mL
Cmax [5, 33]: 1410 ng/mL
increase in ibrutinib exposure ([5]; intravenous ibrutinib, CYP3A deficiency vs wild-type): 2 fold
effect of cobicistat on exposure to ibrutinib ([5]; intravenous ibrutinib, CYP3A-/- mice): did not further increase exposure
increase in ibrutinib exposure ([5]; intravenous ibrutinib, wild-type mice, oral cobicistat pretreatment vs vehicle): 2 fold
SMILES: C=CC(=O)N1CCC[C@@H](n2nc(-c3ccc(Oc4ccccc4)cc3)c3c(N)ncnc32)C1 [Ibrutinib]
fu, plasma [3]: 0.027
pKa [4]: 3.78
